Laboratory results as given in PubChem BioAssay AID1919010 (Molecular Pharmacology Branch, DTP, NCI, 2023).

Tested on: Hs578T complex spheroid growth, percent test/control
Experiment: Anticancer human tumor Hs578T cell line growth inhibition [AhR];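 note: luminescent viability signal as a proxy for spheroid growth; spheroids exposed to agents for one week after three days of growth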
Conditions: for IC50: curve of first compound; for viability, T/C: stronger effect = lower value
Outline: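 Spheroids combined tumor cells with HUVEC endothelial cells and human MSCs as stroma. AhR antagonists were paired with standard or investigational drugs, each dosed in half-log steps down from near clinical Cmax, or from 10 microM where Cmax was unknown.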

[1] = second compound 0.1 µM, first compound 0.0316 µM
[2] = second compound 0.1 µM, first compound 0.1 µM
[3] = second compound 0.1 µM, first compound 0.316 µM
[4] = second compound 0.1 µM, first compound 1 µM
[5] = second compound 0.1 µM, first compound 3.16 µM
[6] = second compound 0.1 µM, first compound 10 µM
[7] = second compound 0.316 µM, first compound 0.0316 µM
[8] = second compound 0.316 µM, first compound 0.1 µM
[9] = second compound 0.316 µM, first compound 0.316 µM
[10] = second compound 0.316 µM, first compound 1 µM
[11] = second compound 0.316 µM, first compound 3.16 µM
[12] = second compound 0.316 µM, first compound 10 µM
[13] = second compound 1 µM, first compound 0.0316 µM
[14] = second compound 1 µM, first compound 0.1 µM
[15] = second compound 1 µM, first compound 0.316 µM
[16] = second compound 1 µM, first compound 1 µM
[17] = second compound 1 µM, first compound 3.16 µM
[18] = second compound 1 µM, first compound 10 µM
[19] = second compound 3.16 µM, first compound 0.0316 µM
[20] = second compound 3.16 µM, first compound 0.1 µM
[21] = second compound 3.16 µM, first compound 0.316 µM
[22] = second compound 3.16 µM, first compound 1 µM
[23] = second compound 3.16 µM, first compound 3.16 µM
[24] = second compound 3.16 µM, first compound 10 µM
[25] = second compound 10 µM, first compound 0.0316 µM
[26] = second compound 10 µM, first compound 0.1 µM
[27] = second compound 10 µM, first compound 0.316 µM
[28] = second compound 10 µM, first compound 1 µM
[29] = second compound 10 µM, first compound 3.16 µM
[30] = second compound 10 µM, first compound 10 µM

Question: `Nc1ccn(C2OC(CO)C(O)C2(F)F)c(=O)n1` (stereo not given) + Cc1cncc(-c2nc(NCCc3c[nH]c4ccccc34)c3ncn(C(C)C)c3n2)c1 was tested. Which IC50 (second compound 0.1 µM) did it give?
Answer: Its IC50 is > 10000 nM.

Question: And the IC50 (second compound 0.316 µM)?
Answer: The IC50 was > 10000 nM.

Question: What about the IC50 (second compound 1 µM) of the same compound?
Answer: Its IC50 is > 10000 nM.

Question: And the IC50 (second compound 3.16 µM)?
Answer: Its IC50 is < 31.6 nM.

Question: And the IC50 (second compound 10 µM)?
Answer: The IC50 was < 31.6 nM.

Question: And the viability, T/C [1]?
Answer: Its viability, T/C is 59.4%.

Question: What about the viability, T/C [2] of the same compound?
Answer: The viability, T/C was 59.6%.

Question: What about the viability, T/C [3] of the same compound?
Answer: Its viability, T/C is 62.6%.

Question: What about the viability, T/C [4] of the same compound?
Answer: The viability, T/C was 56.5%.

Question: And the viability, T/C [5]?
Answer: Its viability, T/C is 57.5%.

Question: What about the viability, T/C [6] of the same compound?
Answer: The viability, T/C was 56.8%.

Question: What about the viability, T/C [7] of the same compound?
Answer: The viability, T/C was 67.2%.

Question: And the viability, T/C [8]?
Answer: The viability, T/C was 65.4%.

Question: What about the viability, T/C [9] of the same compound?
Answer: The viability, T/C was 63%.

Question: What about the viability, T/C [10] of the same compound?
Answer: The viability, T/C was 60.9%.

Question: What about the viability, T/C [11] of the same compound?
Answer: Its viability, T/C is 59.4%.

Question: And the viability, T/C [12]?
Answer: Its viability, T/C is 59.2%.

Question: What about the viability, T/C [13] of the same compound?
Answer: The viability, T/C was 61.6%.

Question: What about the viability, T/C [14] of the same compound?
Answer: Its viability, T/C is 65.2%.

Question: What about the viability, T/C [15] of the same compound?
Answer: Its viability, T/C is 56.3%.

Question: What about the viability, T/C [16] of the same compound?
Answer: Its viability, T/C is 57.8%.

Question: And the viability, T/C [17]?
Answer: Its viability, T/C is 56.8%.

Question: What about the viability, T/C [18] of the same compound?
Answer: The viability, T/C was 56.2%.

Question: And the viability, T/C [19]?
Answer: Its viability, T/C is 37.8%.

Question: And the viability, T/C [20]?
Answer: The viability, T/C was 42.8%.

Question: And the viability, T/C [21]?
Answer: Its viability, T/C is 41.1%.

Question: What about the viability, T/C [22] of the same compound?
Answer: The viability, T/C was 40.4%.

Question: What about the viability, T/C [23] of the same compound?
Answer: The viability, T/C was 33.3%.

Question: And the viability, T/C [24]?
Answer: Its viability, T/C is 37.8%.

Question: And the viability, T/C [25]?
Answer: Its viability, T/C is 4.28%.

Question: And the viability, T/C [26]?
Answer: The viability, T/C was 4.47%.

Question: What about the viability, T/C [27] of the same compound?
Answer: The viability, T/C was 3.43%.

Question: And the viability, T/C [28]?
Answer: Its viability, T/C is 2.76%.

Question: What about the viability, T/C [29] of the same compound?
Answer: The viability, T/C was 3.29%.

Question: What about the viability, T/C [30] of the same compound?
Answer: The viability, T/C was 4.67%.

Question: `O=C(C=Cc1cccc(S(=O)(=O)Nc2ccccc2)c1)NO` + Cc1cncc(-c2nc(NCCc3c[nH]c4ccccc34)c3ncn(C(C)C)c3n2)c1 was tested. Which IC50 (second compound 0.1 µM) did it give?
Answer: The IC50 was 2280 nM.

Question: What about the IC50 (second compound 0.316 µM) of the same compound?
Answer: The IC50 was 2570 nM.

Question: And the IC50 (second compound 1 µM)?
Answer: The IC50 was 2330 nM.

Question: And the IC50 (second compound 3.16 µM)?
Answer: Its IC50 is 750 nM.

Question: What about the IC50 (second compound 10 µM) of the same compound?
Answer: The IC50 was < 31.6 nM.

Question: And the viability, T/C [1]?
Answer: The viability, T/C was 122%.

Question: And the viability, T/C [2]?
Answer: The viability, T/C was 110%.

Question: And the viability, T/C [3]?
Answer: The viability, T/C was 106%.

Question: And the viability, T/C [4]?
Answer: Its viability, T/C is 75.6%.

Question: What about the viability, T/C [5] of the same compound?
Answer: The viability, T/C was 39.8%.

Question: And the viability, T/C [6]?
Answer: The viability, T/C was 2.43%.

Question: And the viability, T/C [7]?
Answer: The viability, T/C was 103%.

Question: And the viability, T/C [8]?
Answer: Its viability, T/C is 116%.

Question: What about the viability, T/C [9] of the same compound?
Answer: The viability, T/C was 93.8%.

Question: And the viability, T/C [10]?
Answer: The viability, T/C was 79.6%.

Question: And the viability, T/C [11]?
Answer: Its viability, T/C is 44%.

Question: And the viability, T/C [12]?
Answer: The viability, T/C was 2.11%.

Question: What about the viability, T/C [13] of the same compound?
Answer: The viability, T/C was 113%.

Question: And the viability, T/C [14]?
Answer: Its viability, T/C is 101%.

Question: And the viability, T/C [15]?
Answer: Its viability, T/C is 98.9%.

Question: And the viability, T/C [16]?
Answer: The viability, T/C was 77.2%.

Question: What about the viability, T/C [17] of the same compound?
Answer: The viability, T/C was 39.9%.

Question: And the viability, T/C [18]?
Answer: The viability, T/C was 1.72%.

Question: And the viability, T/C [19]?
Answer: Its viability, T/C is 76.3%.

Question: What about the viability, T/C [20] of the same compound?
Answer: Its viability, T/C is 63.8%.

Question: And the viability, T/C [21]?
Answer: Its viability, T/C is 63.1%.

Question: And the viability, T/C [22]?
Answer: Its viability, T/C is 46.8%.

Question: And the viability, T/C [23]?
Answer: The viability, T/C was 26.2%.

Question: And the viability, T/C [24]?
Answer: Its viability, T/C is 0.97%.

Question: And the viability, T/C [25]?
Answer: The viability, T/C was 7.33%.

Question: What about the viability, T/C [26] of the same compound?
Answer: The viability, T/C was 7.26%.

Question: What about the viability, T/C [27] of the same compound?
Answer: Its viability, T/C is 4.94%.

Question: What about the viability, T/C [28] of the same compound?
Answer: Its viability, T/C is 2.69%.

Question: And the viability, T/C [29]?
Answer: The viability, T/C was 1.35%.

Question: And the viability, T/C [30]?
Answer: Its viability, T/C is 0.35%.

Question: With `O=C(c1cc(Cc2n[nH]c(=O)c3ccccc23)ccc1F)N1CCN(C(=O)C2CC2)CC1` + Cc1cncc(-c2nc(NCCc3c[nH]c4ccccc34)c3ncn(C(C)C)c3n2)c1 as the compound, how does the IC50 (second compound 0.1 µM) read?
Answer: The IC50 was > 10000 nM.

Question: And the IC50 (second compound 0.316 µM)?
Answer: The IC50 was > 10000 nM.

Question: What about the IC50 (second compound 1 µM) of the same compound?
Answer: Its IC50 is > 10000 nM.

Question: What about the IC50 (second compound 3.16 µM) of the same compound?
Answer: Its IC50 is > 10000 nM.

Question: And the IC50 (second compound 10 µM)?
Answer: Its IC50 is < 31.6 nM.

Question: What about the viability, T/C [1] of the same compound?
Answer: Its viability, T/C is 122%.

Question: What about the viability, T/C [2] of the same compound?
Answer: The viability, T/C was 120%.

Question: And the viability, T/C [3]?
Answer: The viability, T/C was 119%.

Question: What about the viability, T/C [4] of the same compound?
Answer: The viability, T/C was 114%.

Question: What about the viability, T/C [5] of the same compound?
Answer: Its viability, T/C is 103%.

Question: And the viability, T/C [6]?
Answer: The viability, T/C was 94.8%.

Question: And the viability, T/C [7]?
Answer: Its viability, T/C is 116%.

Question: And the viability, T/C [8]?
Answer: Its viability, T/C is 118%.

Question: What about the viability, T/C [9] of the same compound?
Answer: Its viability, T/C is 132%.

Question: And the viability, T/C [10]?
Answer: Its viability, T/C is 131%.

Question: And the viability, T/C [11]?
Answer: The viability, T/C was 114%.

Question: And the viability, T/C [12]?
Answer: Its viability, T/C is 107%.

Question: And the viability, T/C [13]?
Answer: The viability, T/C was 107%.

Question: What about the viability, T/C [14] of the same compound?
Answer: The viability, T/C was 117%.

Question: And the viability, T/C [15]?
Answer: Its viability, T/C is 122%.

Question: What about the viability, T/C [16] of the same compound?
Answer: Its viability, T/C is 105%.

Question: And the viability, T/C [17]?
Answer: Its viability, T/C is 103%.

Question: What about the viability, T/C [18] of the same compound?
Answer: Its viability, T/C is 97.7%.

Question: What about the viability, T/C [19] of the same compound?
Answer: The viability, T/C was 74.7%.

Question: And the viability, T/C [20]?
Answer: The viability, T/C was 68.6%.

Question: What about the viability, T/C [21] of the same compound?
Answer: Its viability, T/C is 77.9%.

Question: And the viability, T/C [22]?
Answer: Its viability, T/C is 60.3%.

Question: What about the viability, T/C [23] of the same compound?
Answer: Its viability, T/C is 55.9%.

Question: And the viability, T/C [24]?
Answer: The viability, T/C was 69.2%.

Question: What about the viability, T/C [25] of the same compound?
Answer: Its viability, T/C is 7.27%.

Question: What about the viability, T/C [26] of the same compound?
Answer: The viability, T/C was 8.04%.

Question: And the viability, T/C [27]?
Answer: The viability, T/C was 6.95%.

Question: And the viability, T/C [28]?
Answer: The viability, T/C was 6.36%.

Question: And the viability, T/C [29]?
Answer: The viability, T/C was 5.59%.

Question: What about the viability, T/C [30] of the same compound?
Answer: The viability, T/C was 7.04%.
